The target in one assay is PI3Kδ (p110δ/p85α) (Homo sapiens (Human), UniProt O00329). Nature of the assay: PI3Kδ Scintillation Proximity Assay (Example A3). In kind it is biochemical. The text has this: Example A3: PI3Kδ Scintillation Proximity Assay
[γ-^33P]ATP (10 mCi/mL) was purchased from Perkin-Elmer (Waltham, Mass.). Lipid kinase substrate, D-myo-Phosphatidylinositol 4,5-bisphosphate (PtdIns(4,5)P2)D (+)-sn-1,2-di-O-octanoylglyceryl, 3-O-phospho linked (PIP2), CAS 204858-53-7, was purchased from Echelon Biosciences (Salt Lake City, Utah). PI3Kδ (p110δ/p85α) was purchased from Millipore (Bedford, Mass.). ATP, MgCl2, DTT, EDTA, MOPS and CHAPS were purchased from Sigma-Aldrich (St. Louis, Mo.). Wheat Germ Agglutinin (WGA) YSi SPA Scintillation Beads was purchased from GE healthcare life sciences (Piscataway, N.J.).
The kinase reaction was conducted in polystyrene 384-well matrix white plate from Thermo Fisher Scientific in a final volume of 25 μL. Inhibitors were first diluted serially in DMSO and added to the plate wells before the addition of other reaction components. The final concentration of DMSO in the assay was 0.5%. The PI3K assays were carried out at room temperature in 20 mM MOPS, pH 6.7, 10 mM MgCl2, 5 mM DTT and CHAPS 0.03%. Reactions were initiated by the addition of ATP, the final reaction mixture consisted of 20 µM PIP2, 20 µM ATP, 0.2 μCi [γ-^33P]ATP, 4 nM PI3Kδ. Reactions were incubated for 210 min and terminated by the addition of 40 μL SPA beads suspended in quench buffer: 150 mM potassium phosphate pH 8.0, 20% glycerol. 25 mM EDTA, 400 µM ATP. The final concentration of SPA beads was 1.0 mg/mL. After the plate sealing, plates were shaken overnight at room temperature and centrifuged at 1800 rpm for 10 minutes, the radioactivity of the product was determined by scintillation counting on Topcount (Perkin-Elmer). IC50 determination was performed by fitting the curve of percent control activity versus the log of the inhibitor concentration using the GraphPad Prism 3.0 software. […] IC50 data for Examples 1-25 is presented in Table 3 for PI3Kδ as determined by the assay of Example A2 or A3 as indicated
On the technique in general: In a scintillation proximity assay essentially only radioactivity close to the scintillant gives light.

In a further assay the target is PI3Kδ (Homo sapiens (Human), UniProt O00329). Nature of the assay: PI3K Enzyme Assay (Example A2), [γ-33P]ATP filter plate. In kind it is biochemical. An outline of the steps: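 Recombinant PI3Kδ at 2.9 nM with 50 µM PIP2 in MOPS pH 6.7, MgCl2, DTT, CHAPS, 0.5% DMSO; started with 1000 μM ATP including [γ-33P]ATP, 180 min at room temperature. Phosphorylated product captured on PVDF filter plates and scintillation-counted; IC50 from percent-control activity vs log concentration.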
PI3Kδ, sequence (O00329 whole entry): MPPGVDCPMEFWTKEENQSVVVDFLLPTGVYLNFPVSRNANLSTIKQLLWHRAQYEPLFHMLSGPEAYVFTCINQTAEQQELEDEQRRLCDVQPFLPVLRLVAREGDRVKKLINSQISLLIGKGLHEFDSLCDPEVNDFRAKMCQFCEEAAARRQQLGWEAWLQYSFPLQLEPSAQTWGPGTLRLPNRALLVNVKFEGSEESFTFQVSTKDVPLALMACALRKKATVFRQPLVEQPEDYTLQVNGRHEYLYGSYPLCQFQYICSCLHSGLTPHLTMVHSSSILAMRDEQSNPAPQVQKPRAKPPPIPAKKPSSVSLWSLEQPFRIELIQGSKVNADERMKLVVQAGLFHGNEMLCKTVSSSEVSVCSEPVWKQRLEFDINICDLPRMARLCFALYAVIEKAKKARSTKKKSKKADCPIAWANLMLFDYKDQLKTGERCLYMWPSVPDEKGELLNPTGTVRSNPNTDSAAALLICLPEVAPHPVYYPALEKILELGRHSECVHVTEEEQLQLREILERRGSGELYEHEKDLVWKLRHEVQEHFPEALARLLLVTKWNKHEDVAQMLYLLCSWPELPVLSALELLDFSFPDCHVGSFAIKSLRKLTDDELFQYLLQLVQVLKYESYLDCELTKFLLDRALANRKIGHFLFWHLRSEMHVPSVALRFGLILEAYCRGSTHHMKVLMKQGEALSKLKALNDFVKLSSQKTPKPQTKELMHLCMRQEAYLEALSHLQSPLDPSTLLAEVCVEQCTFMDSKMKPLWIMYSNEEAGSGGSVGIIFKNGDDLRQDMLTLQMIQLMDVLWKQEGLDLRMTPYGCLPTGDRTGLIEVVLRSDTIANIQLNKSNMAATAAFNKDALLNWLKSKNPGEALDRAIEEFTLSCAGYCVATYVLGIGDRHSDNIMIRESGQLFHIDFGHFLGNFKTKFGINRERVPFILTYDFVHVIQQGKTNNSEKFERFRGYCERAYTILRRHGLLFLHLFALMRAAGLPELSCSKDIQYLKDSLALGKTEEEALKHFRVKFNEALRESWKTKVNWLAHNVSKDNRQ
PI3Kδ, sequence (P27986 whole entry partner): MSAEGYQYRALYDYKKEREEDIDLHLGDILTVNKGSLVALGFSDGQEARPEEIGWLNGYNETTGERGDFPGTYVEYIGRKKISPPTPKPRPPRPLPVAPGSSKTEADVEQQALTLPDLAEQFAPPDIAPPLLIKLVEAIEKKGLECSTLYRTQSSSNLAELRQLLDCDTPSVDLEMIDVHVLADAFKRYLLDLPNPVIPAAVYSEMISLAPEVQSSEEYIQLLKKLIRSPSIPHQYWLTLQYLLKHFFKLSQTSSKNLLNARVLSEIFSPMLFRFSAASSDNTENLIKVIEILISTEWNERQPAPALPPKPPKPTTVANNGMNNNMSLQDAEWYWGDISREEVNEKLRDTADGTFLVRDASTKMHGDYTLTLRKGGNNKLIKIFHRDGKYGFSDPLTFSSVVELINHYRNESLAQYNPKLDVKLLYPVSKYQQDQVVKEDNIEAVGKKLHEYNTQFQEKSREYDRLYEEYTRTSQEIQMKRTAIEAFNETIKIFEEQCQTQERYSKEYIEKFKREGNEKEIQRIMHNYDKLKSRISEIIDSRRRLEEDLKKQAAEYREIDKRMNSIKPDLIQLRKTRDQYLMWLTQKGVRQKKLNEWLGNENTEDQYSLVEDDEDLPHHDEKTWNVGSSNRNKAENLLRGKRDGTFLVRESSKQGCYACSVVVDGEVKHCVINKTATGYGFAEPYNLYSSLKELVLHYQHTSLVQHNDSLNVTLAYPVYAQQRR

The structures appear in SMILES notation. Where a name gives a salt, the structure may show the parent alone.

By IC50 is commonly meant the concentration at which inhibition is half-maximal.

PI3Kδ (p110δ/p85α), sequence (O00329 whole entry): as the sequence (O00329 whole entry) above
PI3Kδ (p110δ/p85α), sequence (P27986 whole entry partner): as the sequence (P27986 whole entry partner) above

`CCC(=O)N1CCOc2c(C(C)n3nc(C)c4c(N)ncnc43)cc(Cl)c(C)c2C1` (stereo not shown) [Example 20, 1-[1-(7-Chloro-6-methyl-4-propionyl-2,3,4,5-tetrahydro-1,4-benzoxazepin-9-yl)ethyl]-3-methyl-1H-pyrazolo[3,4-d]pyrimidin-4-amine trifluoroacetate]: the IC50 against PI3Kδ (p110δ/p85α) was no more than 0.1 µM.
Compound `Cc1c(Cl)cc(C(C)n2nc(C)c3c(N)ncnc32)c2c1CN(C)CCO2` (stereo not shown) [Example 9, 1-[1-(7-Chloro-4,6-dimethyl-2,3,4,5-tetrahydro-1,4-benzoxazepin-9-yl)ethyl]-3-methyl-1H-pyrazolo[3,4-d]pyrimidin-4-amine bis(trifluoroacetate)] showed an IC50 at PI3Kδ (p110δ/p85α) of no more than 0.1 µM.
On the same count and under the same terms, under `Cc1c(Cl)cc(C(C)n2nc(C)c3c(N)ncnc32)c2c1CN(S(C)(=O)=O)CCO2` (stereo not shown) [Example 13, 1-{1-[7-Chloro-6-methyl-4-(methylsulfonyl)-2,3,4,5-tetrahydro-1,4-benzoxazepin-9-yl]ethyl}-3-methyl-1H-pyrazolo[3,4-d]pyrimidin-4-amine trifluoroacetate] stands no more than 0.1 µM; under `Cc1c(Cl)cc(C(C)n2nc(C)c3c(N)ncnc32)c2c1CN(C1CCC1)CCO2` (stereo not shown) [Example 5, 1-[1-(7-Chloro-4-cyclobutyl-6-methyl-2,3,4,5-tetrahydro-1,4-benzoxazepin-9-yl)ethyl]-3-methyl-1H-pyrazolo[3,4-d]pyrimidin-4-amine bis(trifluoroacetate)], no more than 0.1 µM; under `COCC(=O)N1CCOc2c(C(C)n3nc(C)c4c(N)ncnc43)cc(Cl)c(C)c2C1` (stereo not shown) [Example 21, 1-{1-[7-Chloro-4-(methoxyacetyl)-6-methyl-2,3,4,5-tetrahydro-1,4-benzoxazepin-9-yl]ethyl}-3-methyl-1H-pyrazolo[3,4-d]pyrimidin-4-amine trifluoroacetate], no more than 0.1 µM.
The same measure, in the same setting: in the case of `Cc1noc(C)c1S(=O)(=O)N1CCOc2c(C(C)n3nc(C)c4c(N)ncnc43)cc(Cl)c(C)c2C1` (stereo not shown) [Example 17, 1-(1-{7-Chloro-4-[(3,5-dimethylisoxazol-4-yl)sulfonyl]-6-methyl-2,3,4,5-tetrahydro-1,4-benzoxazepin-9-yl}yl)ethyl)-3-methyl-1H-pyrazolo[3,4-d]pyrimidin-4-amine trifluoroacetate] it was no more than 0.1 µM.
Turning to `CC(=O)N1CC(N2CCOc3c(C(C)n4nc(C)c5c(N)ncnc54)cc(Cl)c(C)c3C2)C1` (stereo not shown) [Example 4, 1-{1-[4-(1-Acetylazetidin-3-yl)-7-chloro-6-methyl-2,3,4,5-tetrahydro-1,4-benzoxazepin-9-yl]ethyl}-3-methyl-1H-pyrazolo[3,4-d]pyrimidin-4-amine], at PI3Kδ (p110δ/p85α), the IC50 is no more than 0.1 µM.
Turning to `Cc1c(Cl)cc(C(C)n2nc(C)c3c(N)ncnc32)c2c1CN(S(=O)(=O)C1CC1)CCO2` (stereo not shown) [Example 18, 1-{1-[7-Chloro-4-(cyclopropylsulfonyl)-6-methyl-2,3,4,5-tetrahydro-1,4-benzoxazepin-9-yl]ethyl}-3-methyl-1H-pyrazolo[3,4-d]pyrimidin-4-amine trifluoroacetate], the IC50 at PI3Kδ (p110δ/p85α) was no more than 0.1 µM.
The same measure, in the same setting: in the case of `Cc1c(Cl)cc(C(C)n2nc(C)c3c(N)ncnc32)c2c1CN(C1CCCC1)CCO2` (stereo not shown) [Example 6, 1-[1-(7-Chloro-4-cyclopentyl-6-methyl-2,3,4,5-tetrahydro-1,4-benzoxazepin-9-yl)ethyl]-3-methyl-1H-pyrazolo[3,4-d]pyrimidin-4-amine bis(trifluoroacetate)] it was no more than 0.1 µM; in that of `Cc1c(Cl)cc(C(C)n2nc(C)c3c(N)ncnc32)c2c1CN(C(=O)C(C)C)CCO2` (stereo not shown) [Example 22, 1-[1-(7-Chloro-4-isobutyryl-6-methyl-2,3,4,5-tetrahydro-1,4-benzoxazepin-9-yl)ethyl]-3-methyl-1H-pyrazolo[3,4-d]pyrimidin-4-amine trifluoroacetate], no more than 0.1 µM; in that of `Cc1ccccc1NC(=O)N1CCOc2c(C(C)n3nc(C)c4c(N)ncnc43)cc(Cl)c(C)c2C1` (stereo not shown) [Example 15, 9-[1-(4-Amino-3-methyl-1H-pyrazolo[3,4-d]pyrimidin-1-yl)ethyl]-7-chloro-6-methyl-N-(2-methylphenyl)-2,3-dihydro-1,4-benzoxazepine-4(5H)-carboxamide trifluoroacetate], no more than 0.1 µM.
`Cc1c(Cl)cc(C(C)n2nc(C)c3c(N)ncnc32)c2c1CN(C(=O)CC#N)CCO2` (stereo not shown) [Example 12, 3-[9-[1-(4-Amino-3-methyl-1H-pyrazolo[3,4-d]pyrimidin-1-yl)ethyl]-7-chloro-6-methyl-2,3-dihydro-1,4-benzoxazepin-4(5H)-yl]-3-oxopropanenitrile trifluoroacetate]: the IC50 against PI3Kδ (p110δ/p85α) is no more than 0.1 µM.
On the same count and under the same terms, under `Cc1c(Cl)cc(C(C)n2nc(C)c3c(N)ncnc32)c2c1CN(c1ncc(C#N)s1)CCO2` (stereo not shown) [Example 23, 2-[9-[1-(4-Amino-3-methyl-1H-pyrazolo[3,4-d]pyrimidin-1-yl)ethyl]-7-chloro-6-methyl-2,3-dihydro-1,4-benzoxazepin-4(5H)-yl]-1,3-thiazole-5-carbonitrile trifluoroacetate] stands no more than 0.1 µM; under `Cc1c(Cl)cc(C(C)n2nc(C)c3c(N)ncnc32)c2c1CN(S(=O)(=O)c1ccccc1)CCO2` (stereo not shown) [Example 14, 1-{1-[7-Chloro-6-methyl-4-(phenylsulfonyl)-2,3,4,5-tetrahydro-1,4-benzoxazepin-9-yl]ethyl}-3-methyl-1H-pyrazolo[3,4-d]pyrimidin-4-amine trifluoroacetate], no more than 0.1 µM.
The same measure, in the same setting: in the case of `Cc1c(Cl)cc(C(C)n2nc(C)c3c(N)ncnc32)c2c1CN(c1cnccn1)CCO2` (stereo not shown) [Example 24, 1-[1-(7-Chloro-6-methyl-4-pyrazin-2-yl-2,3,4,5-tetrahydro-1,4-benzoxazepin-9-yl)ethyl]-3-methyl-1H-pyrazolo[3,4-d]pyrimidin-4-amine bis(trifluoroacetate)] it was no more than 0.1 µM; in that of `Cc1c(Cl)cc(C(C)n2nc(C)c3c(N)ncnc32)c2c1CN(CC#N)CCO2` (stereo not shown) [Example 11, [9-[1-(4-Amino-3-methyl-1H-pyrazolo[3,4-d]pyrimidin-1-yl)ethyl]-7-chloro-6-methyl-2,3-dihydro-1,4-benzoxazepin-4(5H)-yl]acetonitrile bis(trifluoroacetate)], no more than 0.1 µM.
On to `COC1CCC(N2CCOc3c(C(C)n4nc(C)c5c(N)ncnc54)cc(Cl)c(C)c3C2)CC1` (stereo not shown) [Example 8, 1-{1-[7-Chloro-4-(4-methoxycyclohexyl)-6-methyl-2,3,4,5-tetrahydro-1,4-benzoxazepin-9-yl]ethyl}-3-methyl-1H-pyrazolo[3,4-d]pyrimidin-4-amine bis(trifluoroacetate)], for which the IC50 at PI3Kδ (p110δ/p85α) is no more than 0.1 µM.
On the same count and under the same terms, in the case of `Cc1c(Cl)cc(C(C)n2nc(C)c3c(N)ncnc32)c2c1CN(C(C)C)CCO2` (stereo not shown) [Example 10, 1-[1-(7-Chloro-4-isopropyl-6-methyl-2,3,4,5-tetrahydro-1,4-benzoxazepin-9-yl)ethyl]-3-methyl-1H-pyrazolo[3,4-d]pyrimidin-4-amine bis(trifluoroacetate)] it was no more than 0.1 µM; in that of `Cc1c(Cl)cc(C(C)n2nc(C)c3c(N)ncnc32)c2c1CNCCO2` (stereo not shown) [Example 2, 1-[1-(7-Chloro-6-methyl-2,3,4,5-tetrahydro-1,4-benzoxazepin-9-yl)ethyl]-3-methyl-1H-pyrazolo[3,4-d]pyrimidin-4-amine bis(trifluoroacetate)], no more than 0.1 µM.
The same measure, in the same setting: in the case of `Cc1c(Cl)cc(C(C)n2nc(C)c3c(N)ncnc32)c2c1C(=O)NCCO2` (stereo not shown) [Example 25, 9-[1-(4-Amino-3-methyl-1H-pyrazolo[3,4-d]pyrimidin-1-yl)ethyl]-7-chloro-6-methyl-3,4-dihydro-1,4-benzoxazepin-5(2H)-one trifluoroacetate] it was no more than 0.1 µM; in that of `CC(=O)N1CCOc2c(C(C)n3nc(C)c4c(N)ncnc43)cc(Cl)c(C)c2C1` (stereo not shown) [Example 19, 1-[1-(4-Acetyl-7-chloro-6-methyl-2,3,4,5-tetrahydro-1,4-benzoxazepin-9-yl)ethyl]-3-methyl-1H-pyrazolo[3,4-d]pyrimidin-4-amine trifluoroacetate], no more than 0.1 µM.
For `Cc1nn(C(C)c2cc(Cl)c(C#N)c3c2OC(C)CN(CC#N)C3)c2ncnc(N)c12` (single isomer, unassigned) [Example 107, 9-[1-(4-amino-3-methyl-1H-pyrazolo[3,4-d]pyrimidin-1-yl)ethyl]-7-chloro-4-(cyanomethyl)-2-methyl-2,3,4,5-tetrahydro-1,4-benzoxazepine-6-carbonitrile], the 50% inhibitory concentration (IC50) against PI3Kδ was no more than 0.1 µM.

These data come from patent US9944646B2, “Bicyclic azaheterocyclobenzylamines as PI3K inhibitors” (Incyte Corporation, priority 2012, dated 2018).
